Data published in the NIST ThermoML archive (doi:10.1016/j.jct.2007.04.005).
Numbers after ± are expanded uncertainties.

Assay: xn = mol fraction of the nth substance listed
Conditions: 328.15 K, Liquid

CCCCCCCCC [nonane] + C1CCCCC1
mass density [kg/m3]
Conditions	x2 = 0	x2 = 0.09303	x2 = 0.2009	x2 = 0.3051	x2 = 0.417	x2 = 0.512	x2 = 0.5996	x2 = 0.7052	x2 = 0.7993	x2 = 0.9039
18340 kPa	–	–	–	–	–	–	–	737.9 ± 1.3	744.5 ± 1.3	753.1 ± 1.2
20370 kPa	708.4 ± 1.6	711.2 ± 1.6	715.1 ± 1.5	719 ± 1.5	723.6 ± 1.5	728 ± 1.5	733 ± 1.4	739.5 ± 1.4	746.2 ± 1.4	754.8 ± 1.3
22390 kPa	710 ± 1.7	712.8 ± 1.7	716.7 ± 1.6	720.6 ± 1.6	725.2 ± 1.6	729.6 ± 1.5	734.7 ± 1.5	741.2 ± 1.5	747.9 ± 1.4	756.5 ± 1.4
24420 kPa	711.5 ± 1.8	714.4 ± 1.7	718.2 ± 1.7	722.2 ± 1.7	726.8 ± 1.6	731.2 ± 1.6	736.3 ± 1.6	742.8 ± 1.5	749.5 ± 1.5	758.1 ± 1.4
26450 kPa	713 ± 1.9	715.9 ± 1.8	719.8 ± 1.8	723.7 ± 1.8	728.3 ± 1.7	732.7 ± 1.7	737.9 ± 1.6	744.4 ± 1.6	751.1 ± 1.6	759.8 ± 1.5
28470 kPa	714.5 ± 1.9	717.4 ± 1.9	721.3 ± 1.9	725.2 ± 1.8	729.8 ± 1.8	734.2 ± 1.8	739.4 ± 1.7	746 ± 1.7	752.6 ± 1.6	761.4 ± 1.6
29490 kPa	715.2 ± 2	718.1 ± 1.9	722 ± 1.9	725.9 ± 1.9	730.6 ± 1.8	735 ± 1.8	740.2 ± 1.8	746.7 ± 1.7	753.4 ± 1.7	762.1 ± 1.6
30500 kPa	716 ± 2	718.8 ± 2	722.8 ± 1.9	726.7 ± 1.9	731.3 ± 1.9	735.7 ± 1.8	740.9 ± 1.8	747.5 ± 1.7	754.2 ± 1.7	762.9 ± 1.6
32530 kPa	717.4 ± 2.1	720.3 ± 2.1	724.2 ± 2	728.1 ± 2	732.8 ± 1.9	737.2 ± 1.9	742.4 ± 1.9	748.9 ± 1.8	755.7 ± 1.8	764.4 ± 1.7
34550 kPa	718.8 ± 2.2	721.7 ± 2.1	725.6 ± 2.1	729.6 ± 2.1	734.2 ± 2	738.7 ± 2	743.9 ± 1.9	750.5 ± 1.9	757.1 ± 1.8	765.9 ± 1.8
36580 kPa	720.2 ± 2.3	723.1 ± 2.2	727 ± 2.2	730.9 ± 2.1	735.7 ± 2.1	740.1 ± 2	745.3 ± 2	751.9 ± 1.9	758.6 ± 1.9	767.4 ± 1.8
38600 kPa	721.6 ± 2.3	724.4 ± 2.3	728.4 ± 2.3	732.3 ± 2.2	737 ± 2.2	741.5 ± 2.1	746.7 ± 2.1	753.3 ± 2	760 ± 2	768.9 ± 1.9
39620 kPa	722.2 ± 2.4	725.1 ± 2.3	729 ± 2.3	733 ± 2.2	737.7 ± 2.2	742.1 ± 2.2	747.4 ± 2.1	754 ± 2.1	760.7 ± 2	769.6 ± 1.9
